According to patent US9896441B2 (Lycera Corporation, priority 2014, dated 2018):

Assays:
RORγ-LBD = target: T1, RORγ-LBD (Homo sapiens, UniProt P51449); assay: RORγ-Ligand Binding Domain (LBD) TR-FRET Assay; format: biochemical; settings: RORγ-LBD TR-FRET assay; for TR-FRET Assay Max Response: maximum response;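 as to TR-FRET Assay Max Response: 665/615 nm signal ratio set to 100 without ursolic acid or test compound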
T1 construct: made in house; host or cells: SF9 cells (baculovirus); used as diluted lysate
T1 sequence (P51449 269-508 limits assumed): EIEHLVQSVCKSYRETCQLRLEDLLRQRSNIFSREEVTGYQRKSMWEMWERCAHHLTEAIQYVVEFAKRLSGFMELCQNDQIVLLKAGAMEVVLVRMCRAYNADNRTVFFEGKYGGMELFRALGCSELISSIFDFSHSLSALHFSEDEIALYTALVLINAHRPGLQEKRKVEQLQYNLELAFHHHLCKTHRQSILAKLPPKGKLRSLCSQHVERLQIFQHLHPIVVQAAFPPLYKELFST
Procedure, shortened: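 This TR-FRET coactivator assay pairs baculovirus-expressed His-RORγ-LBD (~3 nM final) with biotin-SRC1 LXXLL peptide at 200 nM final in pH 7.0 Tris/KCl/EDTA/DTT/BSA buffer.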

Gal4-RORγ-LBD = target: T2, Gal4-RORγ-LBD (Homo sapiens, UniProt P51449); assay: Gal4-RORγ Luciferase Reporter Assay in HEK-293T Cells; format: cell-based; settings: HEK-293 cells, luciferase reporter, in presence of ursolic acid; for Gal4-RORγ Assay Max Response: maximum response
T2 construct: expressed in transfected cells
T2 sequence (P51449 269-508 limits assumed): T1 sequence (P51449 269-508 limits assumed)
Procedure, shortened: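 HEK-293 cells were co-transfected with Gal4-RORγ-LBD and a Gal4-luciferase reporter, then exposed overnight at 37 °C to compounds with […] ursolic acid present (0.2% DMSO). Luminescence was read with One-Glo after 10 min at RT, untreated signal was set as 100, and Max Response was taken as the upper plateau of a 4-parameter logistic fit.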

EC50 (RORγ-LBD) [µM]	EC50 (Gal4-RORγ-LBD) [µM]	SMILES	TR-FRET Assay Max Response (RORγ-LBD)	Gal4-RORγ Assay Max Response (Gal4-RORγ-LBD)
< 0.5	> 10	C/C(=C\c1ccc2c(c1)N(S(=O)(=O)c1cccc(C(F)(F)F)c1)[C@H](C)[C@H](NC(=O)N(C)C)C2)c1c(F)cccc1Cl [Example 146, 3-((2R,3R)-7-((E)-2-(2-Chloro-6-fluorophenyl)prop-1-en-1-yl)-2-methyl-1-((3-(trifluoromethyl)phenyl)sulfonyl)-1,2,3,4-tetrahydroquinolin-3-yl)-1,1-dimethylurea]	** (a value in the range of greater than 90 to 150)	–
< 0.5	0.5 to 5	C/C(=C\c1ccc2c(c1)N(S(=O)(=O)c1cccc(C(F)(F)F)c1)[C@H](C)[C@H](N)C2)c1c(F)cccc1Cl [Example 147, (2R,3R)-7-((E)-2-(2-Chloro-6-fluorophenyl)prop-1-en-1-yl)-2-methyl-1-((3-(trifluoromethyl)phenyl)sulfonyl)-1,2,3,4-tetrahydroquinolin-3-amine]	*** (a value in the range of greater than 150 to 200)	** (a value in the range of greater than 90 to 150)
< 0.5	< 0.5	COc1cc(S(=O)(=O)N2c3cc(OCc4c(F)cccc4Cl)ccc3C[C@@H](CNC(C)=O)[C@H]2C)ccc1F [Example 152, N-(((2R,3S)-7-((2-Chloro-6-fluorobenzyl)oxy)-1-((4-fluoro-3-methoxyphenyl)sulfonyl)-2-methyl-1,2,3,4-tetrahydroquinolin-3-yl)methyl)acetamide]	*** (a value in the range of greater than 150 to 200)	** (a value in the range of greater than 90 to 150)
< 0.5	> 10	COC(=O)C(C)(C)C[C@@H]1Cc2ccc(/C=C/c3c(F)cccc3Cl)cc2N(S(=O)(=O)c2ccc(F)c(OC)c2)C1 [Example 153, Methyl (S,E)-3-(7-(2-chloro-6-fluorostyryl)-1-((4-fluoro-3-methoxyphenyl)sulfonyl)-1,2,3,4-tetrahydroquinolin-3-yl)-2,2-dimethylpropanoate]	*** (a value in the range of greater than 150 to 200)	* (a value in the range of 30 to 90)
< 0.5	< 0.5	COc1cc(S(=O)(=O)N2C[C@H](CC(C)(C)C(=O)O)Cc3ccc(/C=C/c4c(F)cccc4Cl)cc32)ccc1F [Example 154A]	** (a value in the range of greater than 90 to 150)	* (a value in the range of 30 to 90)
< 0.5	0.5 to 5	COc1cc(S(=O)(=O)N2C[C@H](CC(C)(C)C(=O)O)Cc3ccc(/C=C(\C)c4c(F)cccc4Cl)cc32)ccc1F [Example 154C, (S,E)-3-(7-(2-(2-chloro-6-fluorophenyl)prop-1-en-1-yl)-1-((4-fluoro-3-methoxyphenyl)sulfonyl)-1,2,3,4-tetrahydroquinolin-3-yl)-2,2-dimethylpropanoic acid]	** (a value in the range of greater than 90 to 150)	** (a value in the range of greater than 90 to 150)
< 0.5	< 0.5	O=S(=O)(c1cccc(C(F)(F)F)c1)N1C[C@H](O)Cc2ccc(OCc3c(F)cccc3Cl)cc21 [Example 155, (R)-7-((2-Chloro-6-fluorobenzyl)oxy)-1-((3-(trifluoromethyl)phenyl)sulfonyl)-1,2,3,4-tetrahydroquinolin-3-ol]	** (a value in the range of greater than 90 to 150)	** (a value in the range of greater than 90 to 150)
< 0.5	0.5 to 5	O=C(O)CO[C@@H]1Cc2ccc(OCc3c(F)cccc3Cl)cc2N(S(=O)(=O)c2cccc(C(F)(F)F)c2)C1 [Example 157, (R)-2-((7-((2-Chloro-6-fluorobenzyl)oxy)-1-((3-(trifluoromethyl)phenyl)sulfonyl)-1,2,3,4-tetrahydroquinolin-3-yl)oxy)acetic acid]	** (a value in the range of greater than 90 to 150)	** (a value in the range of greater than 90 to 150)
< 0.5	< 0.5	O=S(=O)(c1cccc(C(F)(F)F)c1)N1C[C@@H](O)Cc2ccc(OCc3c(F)cccc3Cl)cc21 [Example 158, (S)-7-((2-Chloro-6-fluorobenzyl)oxy)-1-((3-(trifluoromethyl)phenyl)sulfonyl)-1,2,3,4-tetrahydroquinolin-3-ol]	–	–
< 0.5	0.5 to 5	N[C@@H]1Cc2ccc(OCc3c(F)cccc3Cl)cc2N(S(=O)(=O)c2cccc(C(F)(F)F)c2)C1 [Example 159, (R)-7-((2-Chloro-6-fluorobenzyl)oxy)-1-((3-(trifluoromethyl)phenyl)sulfonyl)-1,2,3,4-tetrahydroquinolin-3-amine]	–	–
< 0.5	< 0.5	CC(=O)N[C@@H]1Cc2ccc(OCc3c(F)cccc3Cl)cc2N(S(=O)(=O)c2cccc(C(F)(F)F)c2)C1 [Example 160, (R)—N-(7-((2-chloro-6-fluorobenzyl)oxy)-1-((3-(trifluoromethyl)phenyl)sulfonyl)-1,2,3,4-tetrahydroquinolin-3-yl)acetamide]	–	–
< 0.5	< 0.5	C/C(=C\c1ccc2c(c1)N(S(=O)(=O)c1cccc(C(F)(F)F)c1)C[C@@H](O)C2)c1c(F)cccc1Cl [Example 161, (S,E)-7-(2-(2-Chloro-6-fluorophenyl)prop-1-en-1-yl)-1-((3-(trifluoromethyl)phenyl)sulfonyl)-1,2,3,4-tetrahydroquinolin-3-ol]	** (a value in the range of greater than 90 to 150)	** (a value in the range of greater than 90 to 150)
< 0.5	< 0.5	C/C(=C\c1ccc2c(c1)N(S(=O)(=O)c1cccc(C(F)(F)F)c1)C[C@H](O)C2)c1c(F)cccc1Cl [Example 162, (R,E)-7-(2-(2-Chloro-6-fluorophenyl)prop-1-en-1-yl)-1-((3-(trifluoromethyl)phenyl)sulfonyl)-1,2,3,4-tetrahydroquinolin-3-ol]	*** (a value in the range of greater than 150 to 200)	** (a value in the range of greater than 90 to 150)
< 0.5	< 0.5	O=S(=O)(c1cccc(C(F)(F)F)c1)N1C[C@H](O)Cc2ccc(/C=C/c3c(F)cccc3Cl)cc21 [Example 163, (R,E)-7-(2-Chloro-6-fluorostyryl)-1-((3-(trifluoromethyl)phenyl)sulfonyl)-1,2,3,4-tetrahydroquinolin-3-ol]	** (a value in the range of greater than 90 to 150)	** (a value in the range of greater than 90 to 150)
< 0.5	0.5 to 5	C/C(=C\c1ccc2c(c1)N(S(=O)(=O)c1cccc(C(F)(F)F)c1)C[C@H](N)C2)c1c(F)cccc1Cl [Example 164, (R,E)-7-(2-(2-Chloro-6-fluorophenyl)prop-1-en-1-yl)-1-((3-(trifluoromethyl)phenyl)sulfonyl)-1,2,3,4-tetrahydroquinolin-3-amine]	–	–
